# Assay results from ChEMBL document CHEMBL1125446 (J Med Chem, 1992).
# Positions of bridges follow the written chain, without caps; N, C: chain ends. Non-standard residues stand in square brackets, D forms with d. Residues, ends and D or L forms follow the SMILES beside them.
# Legend:
# Rattus norvegicus = species: Rattus norvegicus; assay: Compound was evaluated for the Inositol phosphate accumulation in rat skin fibroblasts.; format: functional
# [1] = target: T1, Endothelin receptor type B (Rattus norvegicus, UniProt P21451); assay: Compound was evaluated for the binding affinity to Endothelin B receptor in the rat cerebellum; format: tissue-based
# T1 sequence (P21451 whole entry): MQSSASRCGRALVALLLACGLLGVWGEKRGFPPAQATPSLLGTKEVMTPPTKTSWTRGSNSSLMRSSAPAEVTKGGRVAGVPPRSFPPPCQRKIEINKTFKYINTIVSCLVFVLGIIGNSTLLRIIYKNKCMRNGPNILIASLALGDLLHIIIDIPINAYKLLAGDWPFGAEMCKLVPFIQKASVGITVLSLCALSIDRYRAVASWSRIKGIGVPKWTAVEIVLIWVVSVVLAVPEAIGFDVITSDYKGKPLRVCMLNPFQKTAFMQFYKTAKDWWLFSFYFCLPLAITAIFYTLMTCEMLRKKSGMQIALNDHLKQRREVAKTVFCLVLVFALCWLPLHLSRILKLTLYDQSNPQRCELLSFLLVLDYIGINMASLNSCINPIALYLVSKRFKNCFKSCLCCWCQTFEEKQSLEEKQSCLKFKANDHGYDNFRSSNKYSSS
# Endothelin-1 receptor [2] = target: T2, Endothelin-1 receptor (Rattus norvegicus, UniProt P26684); assay: Compound was evaluated for the binding affinity to Endothelin A receptor in the rat atrium; format: tissue-based, Cardiac atrium
# T2 sequence (P26684 whole entry): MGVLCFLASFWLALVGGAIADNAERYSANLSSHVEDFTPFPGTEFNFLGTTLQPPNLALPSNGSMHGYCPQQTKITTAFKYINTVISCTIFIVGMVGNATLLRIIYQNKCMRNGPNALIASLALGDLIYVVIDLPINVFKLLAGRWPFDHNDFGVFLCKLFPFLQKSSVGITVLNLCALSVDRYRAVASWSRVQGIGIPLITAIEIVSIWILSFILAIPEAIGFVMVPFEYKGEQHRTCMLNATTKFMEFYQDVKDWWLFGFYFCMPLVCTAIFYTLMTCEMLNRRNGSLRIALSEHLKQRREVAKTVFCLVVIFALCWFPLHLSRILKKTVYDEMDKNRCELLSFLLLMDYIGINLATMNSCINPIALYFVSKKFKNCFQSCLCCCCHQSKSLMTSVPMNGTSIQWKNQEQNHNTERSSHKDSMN
# [3] = target: T1, Endothelin receptor type B; assay: Compound was evaluated for the binding affinity to Endothelin B receptor in the rat hippocampus; format: tissue-based
# Endothelin-1 receptor [4] = target: T2, Endothelin-1 receptor; assay: Compound was evaluated for the binding affinity to Endothelin A receptor in the rat aorta; format: tissue-based
# Endothelin-1 receptor [5] = target: T3, Endothelin-1 receptor (Sus scrofa, UniProt Q29010); assay: Compound was evaluated for the binding affinity towards Endothelin A receptor in porcine aortic membranes; format: cell membranes
# T3 sequence (Q29010 whole entry): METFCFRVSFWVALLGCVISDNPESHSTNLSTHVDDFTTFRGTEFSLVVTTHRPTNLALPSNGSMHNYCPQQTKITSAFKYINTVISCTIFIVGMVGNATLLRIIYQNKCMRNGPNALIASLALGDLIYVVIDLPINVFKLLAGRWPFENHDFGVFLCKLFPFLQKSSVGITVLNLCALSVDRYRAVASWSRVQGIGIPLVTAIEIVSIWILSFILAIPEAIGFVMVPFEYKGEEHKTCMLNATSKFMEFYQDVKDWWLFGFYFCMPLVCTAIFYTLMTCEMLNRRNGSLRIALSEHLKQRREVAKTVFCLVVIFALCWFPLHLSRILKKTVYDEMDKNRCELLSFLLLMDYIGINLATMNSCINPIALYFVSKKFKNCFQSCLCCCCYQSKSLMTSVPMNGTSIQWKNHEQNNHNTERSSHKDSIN
# Endothelin-1 receptor [6] = target: T3, Endothelin-1 receptor; assay: Compound was evaluated for the binding affinity to Endothelin A receptor in the porcine aortic smooth muscle
# [7] = target: T4, Endothelin receptor, ET-A/ET-B (Homo sapiens, UniProt P24530+P25101); assay: Compound was evaluated for the Inhibition of the contractile response of Endothelin A receptor in rabbit thoracic aorta; format: functional, tissue-based, Oryctolagus cuniculus; conditions: target entry is the homologue from another species
# T4 sequence (P24530 whole entry): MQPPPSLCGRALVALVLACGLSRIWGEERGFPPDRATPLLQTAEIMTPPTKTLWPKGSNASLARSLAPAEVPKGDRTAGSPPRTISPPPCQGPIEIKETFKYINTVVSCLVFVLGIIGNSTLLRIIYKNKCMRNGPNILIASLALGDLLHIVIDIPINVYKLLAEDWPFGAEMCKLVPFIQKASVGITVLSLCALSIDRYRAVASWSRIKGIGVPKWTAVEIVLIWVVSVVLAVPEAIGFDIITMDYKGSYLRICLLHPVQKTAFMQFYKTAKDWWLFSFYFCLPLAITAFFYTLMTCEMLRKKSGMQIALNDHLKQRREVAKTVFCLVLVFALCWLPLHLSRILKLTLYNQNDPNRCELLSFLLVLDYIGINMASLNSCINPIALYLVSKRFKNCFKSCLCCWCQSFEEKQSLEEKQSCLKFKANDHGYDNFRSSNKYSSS
# T4 sequence (P25101 whole entry): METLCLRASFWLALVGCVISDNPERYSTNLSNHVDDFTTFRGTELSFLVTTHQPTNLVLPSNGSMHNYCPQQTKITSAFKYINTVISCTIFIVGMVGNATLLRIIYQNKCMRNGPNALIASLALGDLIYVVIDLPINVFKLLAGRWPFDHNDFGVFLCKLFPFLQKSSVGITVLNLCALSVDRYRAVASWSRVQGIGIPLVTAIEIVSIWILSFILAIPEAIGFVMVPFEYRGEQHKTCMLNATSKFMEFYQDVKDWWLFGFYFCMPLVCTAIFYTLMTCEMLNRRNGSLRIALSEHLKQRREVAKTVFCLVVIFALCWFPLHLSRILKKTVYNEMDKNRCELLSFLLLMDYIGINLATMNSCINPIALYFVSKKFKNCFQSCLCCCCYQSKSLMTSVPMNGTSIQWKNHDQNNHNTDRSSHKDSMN
compound,measurement,setting,value
CC[C@H](C)[C@H](NC(=O)[C@H](CC(=O)O)NC(=O)[C@H](CC(C)C)NC(=O)[C@@H](Cc1c[nH]cn1)NC(C)=O)C(=O)N[C@H](C(=O)N[C@@H](Cc1c[nH]c2ccccc12)C(=O)O)[C@@H](C)CC (Ac-[dH]LDIIW-OH),IC50,Rattus norvegicus,1400 nM
"CC[C@H](C)[C@H](NC(=O)[C@@H](NC(=O)[C@H](CC(=O)O)NC(=O)[C@H](CCC(N)=O)NC(=O)[C@H](Cc1cnc[nH]1)NC(=O)[C@@H]1CSSC[C@H](N)C(=O)N[C@@H](CO)C(=O)N[C@H]2CSSC[C@H](NC(=O)[C@H](CCC(=O)O)NC(=O)[C@H](CCCCN)NC(=O)[C@H](CC(=O)O)NC(=O)[C@H]([C@@H](C)O)NC(=O)[C@H](CCSC)NC(=O)[C@H](CC(=O)O)NC(=O)[C@H](CCCCN)NC2=O)C(=O)N[C@@H](CC(C)C)C(=O)N[C@@H](Cc2ccc(O)cc2)C(=O)N[C@@H](Cc2ccccc2)C(=O)N1)C(C)C)C(=O)N[C@@H](Cc1c[nH]c2ccccc12)C(=O)O (H-CSCKDMTDKECLYFCHQDVIW-OH; disulfide 1-15, 3-11)",Ki,[1],0.013 nM
same,Ki,Endothelin-1 receptor [2],0.087 nM
same,Ki,[3],0.012 nM
same,Ki,Endothelin-1 receptor [4],0.24 nM
CC(C)C[C@H](NC(=O)Cc1ccccc1Cl)C(=O)N(C)[C@H](Cc1c[nH]c2ccccc12)C(=O)N[C@H](CC(C)C)C(=O)O,IC50,Endothelin-1 receptor [5],32000 nM
CC[C@@H](C)[C@@H](NC(=O)[C@@H](NC(=O)[C@H](CC(=O)O)NC(=O)[C@H](CC(C)C)NC(=O)[C@H](Cc1c[nH]cn1)NC(C)=O)[C@@H](C)CC)C(=O)N[C@@H](Cc1c[nH]c2ccccc12)C(=O)O (Ac-HLDI[dI]W-OH),IC50,Rattus norvegicus,< 50000 nM
CC(C)C[C@H](NC(=O)N1CCCCCC1)C(=O)N(C)[C@H](Cc1c[nH]c2ccccc12)C(=O)N[C@H](Cc1ccccn1)C(=O)N(C)CC(=O)O,IC50,Endothelin-1 receptor [5],7600 nM
CC(C)C[C@@H]1NC(=O)[C@@H](C(C)C)NC(=O)[C@@H]2CCCN2C(=O)[C@@H](CC(=O)O)NC(=O)[C@@H](Cc2c[nH]c3ccccc23)NC1=O [BQ-123] (cyclo(L[dW][dD]P[dV])),IC50,Endothelin-1 receptor [6],22000 nM
CC[C@H](C)[C@H](NC(=O)[C@@H](NC(=O)[C@H](CC(=O)O)NC(=O)[C@H](CCC(N)=O)NC(=O)[C@H](Cc1cnc[nH]1)NC(=O)[C@@H]1CSSC[C@H](N)C(=O)N[C@@H]([C@@H](C)O)C(=O)N[C@H]2CSSC[C@H](NC(=O)[C@H](CCC(=O)O)NC(=O)[C@H](CCC(=O)O)NC(=O)[C@H](CC(=O)O)NC(=O)[C@H]([C@@H](C)O)NC(=O)[C@H](CCSC)NC(=O)[C@H](CC(=O)O)NC(=O)[C@H](CC(N)=O)NC2=O)C(=O)N[C@@H](CC(C)C)C(=O)N[C@@H](CC(N)=O)C(=O)N[C@@H](Cc2ccccc2)C(=O)N1)C(C)C)C(=O)N[C@@H](Cc1c[nH]c2ccccc12)C(=O)O,Ki,[1],0.016 nM
same,Ki,Endothelin-1 receptor [2],4200 nM
same,Ki,[3],0.023 nM
same,Ki,Endothelin-1 receptor [4],> 5000 nM
H-HLDIIW-OH,IC50,Rattus norvegicus,< 50000 nM
CC(C)C[C@H](NC(=O)C1CCCCC1)C(=O)N(C)[C@H](Cc1c[nH]c2ccccc12)C(=O)N[C@H](Cc1ccccn1)C(=O)O.Cl,IC50,Endothelin-1 receptor [5],2300 nM
same,IC50,[7],230000 nM
CC(C)C[C@H](NC(=O)N1CCCCCC1)C(=O)N(C)[C@H](Cc1c[nH]c2ccccc12)C(=O)N[C@H](Cc1ccccn1)C(=O)O,IC50,Endothelin-1 receptor [5],2500 nM
CNC(=O)[C@H](Cc1ccccn1)NC(=O)[C@@H](Cc1c[nH]c2ccccc12)N(C)C(=O)[C@@H](CC(=O)N1CCCCCC1)CC(C)C,IC50,Endothelin-1 receptor [5],7600 nM
CC[C@H](C)[C@H](NC(=O)[C@H](CC(=O)O)NC(=O)[C@H](CC(C)C)NC(=O)[C@H](Cc1c[nH]cn1)NC(=O)[C@@H]1CSSC[C@H](N)C(=O)N[C@@H]([C@@H](C)O)C(=O)N[C@H]2CSSC[C@H](NC(=O)[C@H](CCC(=O)O)NC(=O)[C@H](CCCCN)NC(=O)[C@H](CC(=O)O)NC(=O)[C@H](CCCCN)NC(=O)[C@H](Cc3ccc(O)cc3)NC(=O)[C@H]([C@@H](C)O)NC(=O)[C@H](Cc3ccccc3)NC2=O)C(=O)N[C@@H](C(C)C)C(=O)N[C@@H](Cc2ccc(O)cc2)C(=O)N[C@@H](Cc2ccc(O)cc2)C(=O)N1)C(=O)N[C@H](C(=O)N[C@@H](Cc1c[nH]c2ccccc12)C(=O)O)[C@@H](C)CC [ENDOTHELIN 3],Ki,[1],0.021 nM
same,Ki,Endothelin-1 receptor [2],1.6 nM
same,Ki,[3],0.036 nM
same,Ki,Endothelin-1 receptor [4],2.5 nM
Ac-HLDIIW-OH,IC50,Rattus norvegicus,< 50000 nM
"CC(C)C[C@@H]1NC(=O)[C@@H](C(C)C)NC(=O)[C@H](C)NC(=O)[C@@H](CCC(=O)O)NC(=O)[C@@H](Cc2c[nH]c3ccccc23)NC1=O (single isomer, unassigned)",IC50,Endothelin-1 receptor [6],1400 nM
CC(C)C[C@H](NC(=O)N1CCCCCC1)C(=O)N(C)[C@H](Cc1c[nH]c2ccccc12)C(=O)N[C@H](Cc1ccccn1)C(=O)N[C@@H](Cc1ccccc1)C(=O)O,IC50,Endothelin-1 receptor [5],21000 nM
